Patent US12115140B2, “Method of treating adenoid cystic carcinoma” (THE TRUSTEES OF COLUMBIA UNIVERSITY IN THE CITY OF NEW YORK, priority 2020, dated 2024)

Experiments:
[1] = tested on: ACCX9 primary cultures; assay: Microscope images of ACCX9 primary cultures; assay type: cell-based, human; details: 10 μM, 7 days
Excerpt: FIGS. 3G, 3H and 3I are microscope images of ACCX9 primary cultures treated with DMSO, BMS493 and AGN193109, respectively. […] With reference to FIGS. 3E-3F, combination treatments may be used, based on the use of inverse agonists of RAR/RXR signaling (e.g., BMS493 or AGN193109) as radio-sensitizers and/or chemo-sensitizers (i.e., agents able to increase the cytotoxic activity of radiotherapy and/or chemotherapy).

[2] = tested on: ACCX5M1 organoid cultures, ductal-like (CD49f^low, KIT^+) cells; assay: Organoid cultures of ACCX5M1 PDX line treated one week: inverse agonists versus neutral antagonist, flow cytometry; assay type: cell-based, human; details: for killing of ductal-like (CD49f^low, KIT^+) cells: ACCs cultured in vitro as three-dimensional (3D) organoids
Description: Further, as shown in FIGS. 6A-10, the efficacies of the inverse agonists BMS493 and AGN193109 were compared against a neutral antagonist (BMS195614). For FIGS. 6A-8, organoid cultures from a patient derived xenograft line (ACCX5M1) were treated for one week with DMSO (as a control), the neutral antagonist (BMS195614, 1 μM, 10 μM) or the inverse agonists (BMS493 1 μM, BMS493 10 μM, AGN193109 10 μM). The graphs display the percentage of KIT+ cells in each culture condition. FIG. 6A is a scatter plot displaying the relative content of myoepithelial-like cells and ductal-like cells in a primary in vitro organoid culture of the ACCX5M1 patient-derived xenograft (PDX) line treated with DMSO for 7 days and analyzed by flow cytometry. FIG. 6B is a scatter plot displaying the relative content of myoepithelial-like cells and ductal-like cells in a primary in vitro organoid culture of the ACCX5M1 patient-derived xenograft (PDX) line treated with the neutral antagonist BMS195614 (1 μM) for 7 days and analyzed by flow cytometry. FIG. 6C is a scatter plot displaying the relative content of myoepithelial-like cells and ductal-like cells in a primary in vitro organoid culture of the ACCX5M1 patient-derived xenograft (PDX) line treated with the neutral antagonist BMS195614 (10 μM) for 7 days and analyzed by flow cytometry.
FIG. 7A is a scatter plot displaying the relative content of myoepithelial-like cells and ductal-like cells in a primary in vitro organoid culture of the ACCX5M1 patient-derived xenograft (PDX) line treated with the inverse agonist BMS493 (1 μM) after one week. FIG. 7B is a scatter plot displaying the relative content of myoepithelial-like cells and ductal-like cells in a primary in vitro organoid culture of the ACCX5M1 patient-derived xenograft (PDX) line treated with the inverse agonist BMS493 (10 μM) for 7 days and analyzed by flow cytometry. FIG. 7C is a scatter plot displaying the relative content of myoepithelial-like cells and ductal-like cells in a primary in vitro organoid culture of the ACCX5M1 patient-derived xenograft (PDX) line treated with the inverse agonist AGN193109 (10 μM) for 7 days and analyzed by flow cytometry. FIG. 8 is a bar graph comparing the percentage of ductal-like (CD49f^low, KIT^+) cells after one week from each of the treatments of FIGS. 6A-7C. FIG. 9 is a bar graph comparing the percentage of ductal-like (CD49f^low, KIT^+) cells after one week from the treatments of FIGS. 6A, 6C, 7B and 7C. FIG. 10 is a bar graph comparing the percentage of EpCAM^+/DAPI^+ cells (i.e., dead epithelial cells) after one week from each of the treatments of FIGS. 6A-7C. […] It should be noted that in FIGS. 8-10, BMS195614 has been abbreviated as “BMS195” due to the available space in the Figures.

[3] = tested on: human ACC primary cultures (ACCX5M1, ACCX9); assay: Cell viability / cytotoxic activity in primary cultures of ACC PDX lines; assay type: cell-based; details: for cell viability: ACCX5M1, vs DMSO control cultures, FIG. 3E; for cytotoxic activity: ACCX9 (solid histology), FIG. 3F
Excerpt: With reference to FIGS. 3E-3F, combination treatments may be used, based on the use of inverse agonists of RAR/RXR signaling (e.g., BMS493 or AGN193109) as radio-sensitizers and/or chemo-sensitizers (i.e., agents able to increase the cytotoxic activity of radiotherapy and/or chemotherapy).

[4] = tested on: CD49f^low, KIT^+ (ductal-like) and CD49f^high, KIT^neg (myoepithelial-like) cells of human ACCs; assay: Flow cytometry of short-term primary cultures from ACC PDX lines: relative content of ductal-like and myoepithelial-like cells; assay type: cell-based; details: for significance of reduction in percentage of CD49f^low, KIT^+ (ductal-like) cells: at both 1 μM and 10 μM, ACCX5M1 and SGTX6, vs NT or DMSO; for percentage of myoepithelial-like cells (CD49f^high, KIT^neg): ACCX5M1, direct agonists, vs DMSO
Excerpt: From a histological point of view, ACCs are usually characterized by a “bi-phasic differentiation” (i.e., the malignant tissues contain two distinct cell populations, which are commonly referred to as “myoepithelial-like” and “ductal-like” cells). A combination of cell surface markers (CD49f, KIT) have been discovered which enable the differential purification and accurate quantification of the two populations using fluorescence activated cell sorting (FACS). It has further been discovered that myoepithelial-like (CD49f^high, KIT^neg) cells are associated with more aggressive biological properties as compared to ductal-like (CD49f^low, KIT^+) cells when tested for their tumorigenic capacity (i.e., their capacity to sustain the formation of a new tumor upon xeno-transplantation in immuno-deficient mice).
FIGS. 1A-1F and 2A-2D illustrate the in vitro anti-tumor activity of BMS493 against human ACCs. FIGS. 1A and 1B show the results of a short-term primary culture from a patient-derived xenograft (PDX) line representative of human ACCs with “cribriform” histology (ACCX5M1) treated in vitro with BMS493 (10 μM) for 7 days and then analyzed by flow cytometry. FIGS. 1C and 1D show the results of a short-term primary culture from a patient-derived xenograft (PDX) line representative of human ACCs with “cribriform” histology (SGTX6) treated in vitro with BMS493 (10 μM) for 7 days and then analyzed by flow cytometry. FIGS. 1E and 1F show the results of a short-term primary culture from a patient-derived xenograft (PDX) line representative of human ACCs with “cribriform” histology (ACCX6) treated in vitro with BMS493 (10 μM) for 7 days and then analyzed by flow cytometry.
FIGS. 3A-3I illustrate the in vitro anti-tumor activity of BMS493 and AGN193109 against human ACCs. FIGS. 3A and 3B show comparison plots of short-term primary cultures from two patient-derived xenograft (PDX) lines representative of human ACCs with “cribriform” histology (SGTX6 and ACCX5M1, respectively), which were treated in vitro for 7 days with either BMS493 or AGN193109 and then analyzed by flow cytometry.

[5] = tested on: CD49f^low, KIT^+ (ductal-like) and CD49f^high, KIT^neg (myoepithelial-like) cells of human ACCs; assay: as above; assay type: cell-based; details: 10 μM, 7 days; ACCX5M1; direct agonists; vs DMSO
[6] = tested on: myoepithelial-like cells (CD49f^high, KIT^neg) isolated by FACS from solid tumors; assay: Sorted myoepithelial-like cells (FACS) stimulated in vitro with direct RAR agonist; assay type: cell-based, human; details: ATRA 10 μM (also printed 10 mM), 7 days
[7] = tested on: human ACCs engrafted in mice (ACCX5M1, SGTX6, ACCX9); assay: In vivo growth kinetics of ACC PDX lines engrafted subcutaneously in NSG immune-deficient mice
Description: Three independent patient-derived xenograft (PDX) lines representative of human ACCs (ACCX5M1, SGTX6, ACCX9) were engrafted in the subcutaneous (s.c.) tissue of NOD/SCID/IL2Rγ^−/− (NS G) immune-deficient mice and left growing until they reached a size of approximately 700 mm^3. Tumor-bearing mice were then divided into two cohorts, one of which was treated with BMS493 (40 mg/kg X 3-4 days/week), while the other received only DMSO (i.e., the solvent used as a vehicle to resuspend BMS493).

[8] = tested on: human ACC tumor cells (PDX lines SGTX6, ACCX6, ACCX9, ACCX11); assay: Percentage of dead tumor cells (EpCAM^+/DAPI^+) in primary cultures of ACC PDX lines by flow cytometry; assay type: cell-based
Excerpt: (§1) It should be noted that in FIGS. 2A and 2B, the percentage of dead tumor cells is reported as a percentage of the human epithelial cells that incorporate DAPI (i.e. EpCAM^+/DAPI^+) and excludes any contaminant of mouse cells from the primary tissues that were used to generate the cultures (i.e. excludes cells expressing H-2K^d and/or mCd45).
as §1, with “2C” for “2A”, “2D,” for “2B,”

[9] = 7 days, SGTX6 and ACCX5M1, FIGS. 3A, 3B
[10] = 10 μM, 7 days, ACCX5M1, SGTX6, ACCX6 (cribriform), vs untreated
[11] = ACCX5M1 organoids, one week, FIG. 8

Compound | cell morphology in microscope images [1] | killing of ductal-like (CD49f^low, KIT^+) cells [2] | cell viability [3] | cytotoxic activity [3] | percentage of CD49f^low, KIT^+ (ductal-like) cells [4, 9] | significance of reduction in percentage of CD49f^low, KIT^+ (ductal-like) cells [4] | percentage of ductal-like cells (CD49f^low, KIT^+) [5] | percentage of myoepithelial-like cells (CD49f^high, KIT^neg) ([4]; 10 μM, 7 days) | further results
Cc1ccc(C2=CCC(C)(C)c3ccc(C#Cc4ccc(C(=O)O)cc4)cc32)cc1 [AGN193109, 4-[2-[5,6-Dihydro-5,5-dimethyl-8-(4-methylphenyl)-2-naphthalenyl]ethynyl]benzoic acid] | widespread cell fragmentation | able to selectively kill | reduction in cell viability | clear cytotoxic activity | dramatic reduction | statistically significant | – | – | –
CC1=C(/C=C/C(C)=C/C=C/C(C)=C/C(=O)O)C(C)(C)CCC1 [ATRA, all-trans retinoic acid] | – | – | – | – | – | – | increase | reduction | differentiation of sorted myoepithelial-like cells into ductal-like cells [6]: differentiation of myoepithelial-like cells
CC1(C)CC=C(C#Cc2ccccc2)c2cc(/C=C/c3ccc(C(=O)O)cc3)ccc21 [BMS493, 4-[(1E)-2-[5,6-Dihydro-5,5-dimethyl-8-(2-phenylethynyl)-2-naphthalenyl]ethenyl]benzoic acid] | widespread cell fragmentation | able to selectively kill | reduction in cell viability | clear cytotoxic activity | dramatic reduction | statistically significant | – | – | tumor growth (change in tumor volume over time) ([7]; 40 mg/kg X 3-4 days/week, ACCX5M1, SGTX6, ACCX9 s.c. in NSG mice, vs DMSO): either growth arrest or tumor shrinkage; activity against human ACCs engrafted in mice ([7]; dosing regimens from 10 mg/kg (once daily X 21 days) up to 40 mg/kg (4 times/week X 3 weeks)): active; percentage of dead (DAPI^+) cells ([8]; ACCX9 and ACCX11 (solid histology)): substantial increase; percentage of dead tumor cells (EpCAM^+/DAPI^+) ([8]; SGTX6 and ACCX6 (cribriform), vs NT, DMSO or ATRA): substantial increase; percentage of dead cells (EpCAM^+/DAPI^+) ([2]; ACCX5M1 organoids, one week, BMS493 10 μM, BMS195614 1 μM, 10 μM, FIG. 10): significant increase; percentage of CD49f^high, KIT^neg (myoepithelial-like) cells [4, 10]: corresponding relative increase; percentage of CD49f^low, KIT^+ (ductal-like) cells [4, 10]: dramatic reduction
CC1(C)CC=C(c2cnc3ccccc3c2)c2cc(C(=O)Nc3ccc(C(=O)O)cc3)ccc21 [BMS195614] | – | – | – | – | – | – | – | – | change in percentage of ductal-like (CD49f^low, KIT^+) cells on raising concentration from 1 μM to 10 μM [2, 11]: does not translate in a significant decrease; percentage of ductal-like (CD49f^low, KIT^+) cells relative to BMS493 and AGN193109 [2, 11]: remains statistically superior; anti-tumor effect relative to inverse agonists BMS493 and AGN193109 ([2]; at both doses, 1 μM and 10 μM): clearly systematically inferior
C=C(c1ccc(C(=O)O)cc1)c1cc2c(cc1C)C(C)(C)CCC2(C)C [bexarotene] | – | – | – | – | – | – | increase | reduction | –
